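Method: 48-hour compound exposure of cells in 96-well plates, five concentrations, linear interpolation of endpoints. GI50 marks 50% less growth.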 Active and inactive are the calls of the source. Rule as the data show it: active = GI50 up to about 1.1 µM and inactive = higher.
Key:
Experiment in all cases: DTP human tumour cell line panel, 48 h
A498 = test system: A498
DU-145 = test system: DU-145
K562 = test system: K562
LOX IMVI = test system: LOX IMVI
MCF7 = test system: MCF7
PC-3 = test system: PC-3
SF-268 = test system: SF-268
SK-MEL-28 = test system: SK-MEL-28
SN12C = test system: SN12C
SNB-75 = test system: SNB-75
SW-620 = test system: SW-620
UACC-257 = test system: UACC-257
HOP-62 = test system: HOP-62
IGROV-1 = test system: IGROV-1
SK-MEL-2 = test system: SK-MEL-2
UACC-62 = test system: UACC-62
Malme-3M = test system: Malme-3M
OVCAR-4 = test system: OVCAR-4
SF-539 = test system: SF-539

Structure (SMILES) | GI50 (A498) | GI50 (DU-145) | GI50 (K562) | GI50 (LOX IMVI) | GI50 (MCF7) | GI50 (PC-3) | GI50 (SF-268) | GI50 (SK-MEL-28) | GI50 (SN12C) | GI50 (SNB-75) | GI50 (SW-620) | GI50 (UACC-257) | GI50 (HOP-62) | GI50 (IGROV-1) | GI50 (SK-MEL-2) | GI50 (UACC-62) | GI50 (Malme-3M) | GI50 (OVCAR-4) | GI50 (SF-539)
CCOC(=O)C1(CO)CSCCSC1 | > 100 µM (inactive) | > 100 µM (inactive) | > 100 µM (inactive) | > 100 µM (inactive) | > 100 µM (inactive) | > 100 µM (inactive) | > 100 µM (inactive) | > 100 µM (inactive) | > 100 µM (inactive) | > 100 µM (inactive) | > 100 µM (inactive) | > 100 µM (inactive) | – | – | – | – | – | – | –
COc1cc(/C=c2\sc3n(c2=O)C(c2ccc(Cl)cc2)C2=C(CCCC2C)N=3)cc(OC)c1OC (stereo not drawn) | > 100 µM (inactive) | > 100 µM (inactive) | > 100 µM (inactive) | > 100 µM (inactive) | > 100 µM (inactive) | > 100 µM (inactive) | > 100 µM (inactive) | > 100 µM (inactive) | > 100 µM (inactive) | > 100 µM (inactive) | > 100 µM (inactive) | > 100 µM (inactive) | > 100 µM (inactive) | > 100 µM (inactive) | > 100 µM (inactive) | > 100 µM (inactive) | – | – | –
O=CC1OC(=O)c2cc(O)c(O)c(O)c2-c2c(cc(O)c(O)c2O)C(=O)OC1C(O)C(O)CO (stereo not drawn) | > 100 µM (inactive) | > 100 µM (inactive) | 21.1 µM (inactive) | 15.4 µM (inactive) | 19.1 µM (inactive) | 16.2 µM (inactive) | > 100 µM (inactive) | 83.4 µM (inactive) | 28.5 µM (inactive) | > 100 µM (inactive) | 17.1 µM (inactive) | 82 µM (inactive) | 63.2 µM (inactive) | > 100 µM (inactive) | 15.4 µM (inactive) | – | > 100 µM (inactive) | 17.4 µM (inactive) | > 100 µM (inactive)
C/C(=C/C(=O)Nc1ccccc1)Nc1onc(C)c1C | > 100 µM (inactive) | – | > 100 µM (inactive) | > 100 µM (inactive) | > 100 µM (inactive) | – | > 100 µM (inactive) | > 100 µM (inactive) | > 100 µM (inactive) | 38.4 µM (inactive) | > 100 µM (inactive) | > 100 µM (inactive) | > 100 µM (inactive) | > 100 µM (inactive) | > 100 µM (inactive) | > 100 µM (inactive) | > 100 µM (inactive) | > 100 µM (inactive) | > 100 µM (inactive)
CN1CC[C@@]2(c3cccc(O)c3)CC(=O)/C(=C/c3ccccc3)[C@H]1C2.[O-][Cl+3]([O-])([O-])O | 9.31 µM (inactive) | 15.8 µM (inactive) | 2.58 µM (inactive) | 1.7 µM (inactive) | 2.64 µM (inactive) | 4.29 µM (inactive) | 4.28 µM (inactive) | 11.2 µM (inactive) | 7.03 µM (inactive) | 2.47 µM (inactive) | 2.54 µM (inactive) | 16.1 µM (inactive) | 18.5 µM (inactive) | 13.7 µM (inactive) | 19.8 µM (inactive) | – | 15 µM (inactive) | 7.94 µM (inactive) | 16.9 µM (inactive)
COc1cccc(N[C@@H]2c3cc4c(cc3C(c3cc(OC)c(O)c(OC)c3)[C@H]3C(=O)OCC32)OCO4)c1 (stereo partly drawn) | 0.293 µM (active) | – | 0.531 µM (active) | 0.558 µM (active) | 0.207 µM (active) | – | 0.681 µM (active) | 2.49 µM (inactive) | 0.681 µM (active) | 0.52 µM (active) | 0.891 µM (active) | 0.44 µM (active) | 0.191 µM (active) | 2.07 µM (inactive) | 3.76 µM (inactive) | 0.24 µM (active) | 1.79 µM (inactive) | 7.55 µM (inactive) | 0.369 µM (active)
